# Measured values reported in publication PMC5642477, “Phosphodiesterase 10A is overexpressed in lung tumor cells and inhibitors selectively suppress growth by blocking β-catenin and MAPK signaling” (Oncotarget, 2017).
# Read-outs that look alike come from different tables or passages of the source.
# Experiments:
# [1] = test system: HOP62 cells; assay: Growth assay (Cell Titer Glo); format: cell-based, human; settings: for IC50: Homo sapiens, HOP-62, HOP62, 72 hours, 5% serum, read-out: Growth inhibition IC50
# Protocol: (§1) Cells were plated in half area 96-well microtiter plates (Corning) at a density of 3, 000 cells per well. For drug treatment, cells were treated with compound or DMSO as vehicle (final concentration at 0.2%). For siRNA assays, cells were transfected with siRNAs under the same condition as described above. The effect of treatment on cell growth was measured using the Cell Titer Glo (CTG) assay (Promega) as specified by the measurement of viable cells based on ATP content after 72 hours standard culture. All growth assay involving NSCLCs and NHAECs were performed in the presence of 5% serum.
# (§2) Drug effects on cell growth and IC50 values were determined as described previously. All experiments were repeated a minimum of three times to determine the reproducibility of the results. All error bars represent standard error of the mean (SEM). Statistical analysis was performed using Student’s t test or other as indicated. A P value of <0.05 was considered statistically significant.
# [2] = test system: EKVX cells; assay: Growth assay (Cell Titer Glo); format: cell-based; settings: Homo sapiens, 72 hours, read-out: Growth inhibition IC50
# Protocol: as §1, §2
# [3] = test system: H522 cells; assay: Growth assay (Cell Titer Glo); format: cell-based; settings: Homo sapiens, NCI-H522; H522, 72 hours; read-out: Growth inhibition IC50
# Protocol: as §1, §2
# [4] = test system: H322M cells; assay: Growth assay (Cell Titer Glo); format: cell-based; settings: Homo sapiens, NCI-H322M, 72 hours, read-out: Growth inhibition IC50
# Protocol: as §1, §2
# [5] = test system: HOP-92 cells; assay: Growth assay (Cell Titer Glo); format: cell-based; settings: Homo sapiens; HOP-92, 72 hours; read-out: Growth inhibition IC50
# Protocol: as §1, §2
# [6] = test system: H226 cells; assay: Growth assay (Cell Titer Glo); format: cell-based; settings: Homo sapiens, NCI-H226; H226, 72 hours; read-out: Growth inhibition IC50
# Protocol: as §1, §2
# [7] = test system: H460 cells; assay: Growth assay (Cell Titer Glo); format: cell-based; settings: Homo sapiens, NCI-H460; H460, 72 hours, 5% serum; read-out: Growth inhibition IC50
# Protocol: as §1, §2
# [8] = test system: A549 cells; assay: Growth assay (Cell Titer Glo); format: cell-based; settings: Homo sapiens; A549, 72 hours, 5% serum; read-out: Growth inhibition IC50
# Protocol: as §1, §2
# [9] = test system: H23 cells; assay: Growth assay (Cell Titer Glo); format: cell-based; settings: Homo sapiens, NCI-H23; H23, 72 hours; read-out: Growth inhibition IC50
# Protocol: as §1, §2
# [10] = test system: cleaved PARP and caspase 3 in H1299 cells; assay: Western blotting, cleaved PARP and caspase 3 (apoptosis); format: cell-based, human
# Protocol: (§3) Whole cell extraction was performed according to a previously described method using cell lysing buffer (Cell Signaling) supplemented with 10 mmol/L NaF for protein phosphorylation studies. Cell lysates were separated by 4-12% gradient, 7% or 10% pre-casting PAGE (Novex/Invitrogen) followed by electrophoretic transfer to a nitrocellulose membrane. Western blotting procedures were performed using Chemiluminescence Reagent (Pierce) and visualized using Chemi Doc Imaging System (BioRad).
# [11] = test system: β-catenin in H1299 cells; assay: Western blotting, β-catenin phosphorylation; format: cell-based, human
# Protocol: as §3
# [12] = biological target: PDE8A (Homo sapiens, UniProt O60658); assay: IMAP fluorescence polarization PDE assay, recombinant PDE isozymes; format: biochemical; set-up: key: Inactive: >100 µmol/L shows no inhibition; settings: substrate cAMP
# Protocol: (§4) The enzymatic activity of recombinant PDE or PDE activities in cell lysates were measured using the IMAP fluorescence polarization (FP) PDE assay (Molecular Devices) as previously described. PDE10 inhibitors and DMSO as the vehicle were added to assay buffer 10 minutes before the incubation with the enzyme reaction. Fluorescence polarization values were measured using Synergy H4 Hybrid Reader (BioTek).
# [13] = biological target: PDE7A (Homo sapiens, UniProt Q13946); assay: as above; format: biochemical; set-up: key: Inactive: >100 µmol/L shows no inhibition; settings: substrate cAMP
# PDE7A, sequence (Q13946 whole entry): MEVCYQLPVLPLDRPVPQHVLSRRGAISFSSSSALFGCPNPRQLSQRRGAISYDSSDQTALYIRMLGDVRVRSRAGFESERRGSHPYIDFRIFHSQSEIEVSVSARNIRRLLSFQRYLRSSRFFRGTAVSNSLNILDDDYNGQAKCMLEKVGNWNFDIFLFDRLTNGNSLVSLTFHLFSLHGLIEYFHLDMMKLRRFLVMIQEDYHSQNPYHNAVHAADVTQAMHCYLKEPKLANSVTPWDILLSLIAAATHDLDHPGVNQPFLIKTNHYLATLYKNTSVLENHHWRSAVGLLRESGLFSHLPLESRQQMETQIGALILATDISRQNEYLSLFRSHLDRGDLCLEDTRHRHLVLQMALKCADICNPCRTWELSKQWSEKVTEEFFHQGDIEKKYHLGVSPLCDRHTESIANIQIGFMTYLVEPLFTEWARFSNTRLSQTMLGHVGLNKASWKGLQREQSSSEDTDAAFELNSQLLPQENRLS
# Protocol: as §4
# [14] = biological target: PDE9A (Homo sapiens, UniProt O76083); assay: as above; format: biochemical; set-up: key: Inactive: >100 µmol/L shows no inhibition; settings: substrate cGMP
# PDE9A, sequence (O76083 whole entry): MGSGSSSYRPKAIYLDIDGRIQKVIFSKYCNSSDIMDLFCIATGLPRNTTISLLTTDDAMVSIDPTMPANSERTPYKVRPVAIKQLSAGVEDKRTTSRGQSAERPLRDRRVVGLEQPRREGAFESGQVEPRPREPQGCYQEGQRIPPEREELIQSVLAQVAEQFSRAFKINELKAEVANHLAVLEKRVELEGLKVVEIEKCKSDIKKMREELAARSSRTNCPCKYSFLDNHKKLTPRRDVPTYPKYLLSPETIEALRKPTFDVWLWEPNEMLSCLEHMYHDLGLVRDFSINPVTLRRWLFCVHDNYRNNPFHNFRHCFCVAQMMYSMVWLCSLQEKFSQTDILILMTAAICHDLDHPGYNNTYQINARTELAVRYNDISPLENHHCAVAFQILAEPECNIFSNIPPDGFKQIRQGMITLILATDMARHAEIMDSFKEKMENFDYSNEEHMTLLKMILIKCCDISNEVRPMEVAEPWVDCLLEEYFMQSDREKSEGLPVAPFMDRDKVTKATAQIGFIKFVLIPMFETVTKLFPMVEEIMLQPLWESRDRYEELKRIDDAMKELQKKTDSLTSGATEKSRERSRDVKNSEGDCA
# Protocol: as §4
# [15] = test system: PDE6A/B; assay: as above; format: biochemical; set-up: key: Inactive: >100 µmol/L shows no inhibition; settings: substrate cGMP
# Protocol: as §4
# [16] = test system: PKG activation in H1299 cells; assay: Western blotting, PKG activation (pSer239-VASP); format: cell-based, human
# Protocol: as §3
# [17] = biological target: PDE5A (Homo sapiens, UniProt O76074); assay: IMAP fluorescence polarization PDE assay, recombinant PDE isozymes; format: biochemical; settings: substrate cGMP; read-out: IC50 of PQ10 cGMP
# Protocol: as §4
# [18] = biological target: PDE3A (Homo sapiens, UniProt Q14432); assay: as above; format: biochemical
# PDE3A, sequence (Q14432 whole entry): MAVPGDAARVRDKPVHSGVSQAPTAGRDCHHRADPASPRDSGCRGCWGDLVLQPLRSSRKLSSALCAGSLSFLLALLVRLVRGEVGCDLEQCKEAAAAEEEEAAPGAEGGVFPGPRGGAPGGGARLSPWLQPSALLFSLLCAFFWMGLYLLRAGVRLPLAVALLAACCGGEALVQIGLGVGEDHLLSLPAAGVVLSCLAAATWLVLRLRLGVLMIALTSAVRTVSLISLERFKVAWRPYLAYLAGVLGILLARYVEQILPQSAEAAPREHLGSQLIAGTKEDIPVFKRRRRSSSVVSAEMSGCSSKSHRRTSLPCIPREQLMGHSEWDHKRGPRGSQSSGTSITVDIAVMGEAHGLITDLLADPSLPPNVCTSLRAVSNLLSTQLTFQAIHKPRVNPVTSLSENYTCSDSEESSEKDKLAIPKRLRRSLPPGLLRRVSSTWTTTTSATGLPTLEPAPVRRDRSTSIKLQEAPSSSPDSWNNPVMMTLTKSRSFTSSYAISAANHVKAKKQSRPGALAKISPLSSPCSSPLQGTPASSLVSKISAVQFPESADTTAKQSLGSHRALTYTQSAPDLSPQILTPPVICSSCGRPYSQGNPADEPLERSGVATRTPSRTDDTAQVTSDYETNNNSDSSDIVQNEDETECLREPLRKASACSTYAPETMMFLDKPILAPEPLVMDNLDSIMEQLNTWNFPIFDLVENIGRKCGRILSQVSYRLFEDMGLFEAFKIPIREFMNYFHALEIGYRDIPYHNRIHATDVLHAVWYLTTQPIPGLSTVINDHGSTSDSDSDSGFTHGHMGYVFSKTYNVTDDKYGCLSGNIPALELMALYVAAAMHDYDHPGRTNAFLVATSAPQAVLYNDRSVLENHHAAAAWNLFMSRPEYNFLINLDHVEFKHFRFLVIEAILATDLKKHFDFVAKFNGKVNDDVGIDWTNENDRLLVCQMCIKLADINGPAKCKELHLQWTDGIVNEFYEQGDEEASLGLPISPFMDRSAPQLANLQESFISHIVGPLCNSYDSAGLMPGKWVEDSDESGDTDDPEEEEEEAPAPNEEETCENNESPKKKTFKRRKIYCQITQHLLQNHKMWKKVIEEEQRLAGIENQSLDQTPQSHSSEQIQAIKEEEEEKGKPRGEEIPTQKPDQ
# Protocol: as §4
# [19] = biological target: PDE10A (Homo sapiens, UniProt Q9Y233); assay: as above; format: biochemical
# PDE10A, sequence (Q9Y233 718-1035 limits assumed): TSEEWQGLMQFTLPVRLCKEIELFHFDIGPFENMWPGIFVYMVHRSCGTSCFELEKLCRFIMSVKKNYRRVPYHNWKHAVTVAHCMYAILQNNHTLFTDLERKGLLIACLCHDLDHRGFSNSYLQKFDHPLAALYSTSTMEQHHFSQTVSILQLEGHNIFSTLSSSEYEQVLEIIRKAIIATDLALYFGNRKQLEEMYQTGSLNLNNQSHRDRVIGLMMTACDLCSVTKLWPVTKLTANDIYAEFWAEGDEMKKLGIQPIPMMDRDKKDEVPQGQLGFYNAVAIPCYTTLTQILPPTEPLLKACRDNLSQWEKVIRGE
# Protocol: as §4
# [20] = biological target: PDE1A (Homo sapiens, UniProt P54750); assay: as above; format: biochemical
# PDE1A, sequence (P54750 whole entry): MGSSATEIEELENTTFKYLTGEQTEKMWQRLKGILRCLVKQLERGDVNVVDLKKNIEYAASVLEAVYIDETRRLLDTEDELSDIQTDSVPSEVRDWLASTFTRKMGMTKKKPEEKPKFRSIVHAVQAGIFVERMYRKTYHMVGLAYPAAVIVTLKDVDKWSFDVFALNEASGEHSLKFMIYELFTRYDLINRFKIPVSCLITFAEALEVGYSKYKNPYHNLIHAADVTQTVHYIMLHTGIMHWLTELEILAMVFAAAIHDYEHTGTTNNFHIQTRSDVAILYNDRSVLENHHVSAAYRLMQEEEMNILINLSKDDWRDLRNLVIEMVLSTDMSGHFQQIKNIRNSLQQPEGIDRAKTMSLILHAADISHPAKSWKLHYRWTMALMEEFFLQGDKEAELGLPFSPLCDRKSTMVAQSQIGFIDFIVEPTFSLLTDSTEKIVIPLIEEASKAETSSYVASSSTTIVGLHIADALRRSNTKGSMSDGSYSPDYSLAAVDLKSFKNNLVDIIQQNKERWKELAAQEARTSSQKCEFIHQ
# Protocol: as §4
# [21] = biological target: PDE11A (Homo sapiens, UniProt Q9HCR9); assay: as above; format: biochemical
# PDE11A, sequence (Q9HCR9 whole entry): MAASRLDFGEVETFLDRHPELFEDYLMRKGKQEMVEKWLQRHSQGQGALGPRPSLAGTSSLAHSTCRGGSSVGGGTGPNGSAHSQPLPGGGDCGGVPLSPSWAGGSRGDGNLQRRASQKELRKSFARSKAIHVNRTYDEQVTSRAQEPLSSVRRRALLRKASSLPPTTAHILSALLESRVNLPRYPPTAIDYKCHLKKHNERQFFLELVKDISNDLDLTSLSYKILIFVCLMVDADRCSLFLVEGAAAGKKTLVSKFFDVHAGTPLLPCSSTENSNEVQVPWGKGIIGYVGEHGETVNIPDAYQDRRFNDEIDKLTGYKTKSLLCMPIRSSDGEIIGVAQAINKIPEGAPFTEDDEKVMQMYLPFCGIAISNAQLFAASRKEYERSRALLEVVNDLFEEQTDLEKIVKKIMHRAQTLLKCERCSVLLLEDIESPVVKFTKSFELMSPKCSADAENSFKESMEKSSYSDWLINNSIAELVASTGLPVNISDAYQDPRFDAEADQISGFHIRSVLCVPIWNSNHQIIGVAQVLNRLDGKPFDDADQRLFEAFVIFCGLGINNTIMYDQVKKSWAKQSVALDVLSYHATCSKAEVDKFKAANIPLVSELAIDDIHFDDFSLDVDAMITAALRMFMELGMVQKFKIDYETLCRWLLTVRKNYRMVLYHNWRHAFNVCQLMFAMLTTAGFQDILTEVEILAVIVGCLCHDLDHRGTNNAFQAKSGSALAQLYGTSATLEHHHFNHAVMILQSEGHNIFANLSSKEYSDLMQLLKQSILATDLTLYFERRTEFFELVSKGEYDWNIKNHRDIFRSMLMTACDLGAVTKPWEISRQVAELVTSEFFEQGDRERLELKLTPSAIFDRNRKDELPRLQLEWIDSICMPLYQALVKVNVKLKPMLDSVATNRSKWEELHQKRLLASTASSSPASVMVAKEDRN
# Protocol: as §4
# [22] = biological target: PDE2A (Homo sapiens, UniProt O00408); assay: as above; format: biochemical
# PDE2A, sequence (O00408 whole entry): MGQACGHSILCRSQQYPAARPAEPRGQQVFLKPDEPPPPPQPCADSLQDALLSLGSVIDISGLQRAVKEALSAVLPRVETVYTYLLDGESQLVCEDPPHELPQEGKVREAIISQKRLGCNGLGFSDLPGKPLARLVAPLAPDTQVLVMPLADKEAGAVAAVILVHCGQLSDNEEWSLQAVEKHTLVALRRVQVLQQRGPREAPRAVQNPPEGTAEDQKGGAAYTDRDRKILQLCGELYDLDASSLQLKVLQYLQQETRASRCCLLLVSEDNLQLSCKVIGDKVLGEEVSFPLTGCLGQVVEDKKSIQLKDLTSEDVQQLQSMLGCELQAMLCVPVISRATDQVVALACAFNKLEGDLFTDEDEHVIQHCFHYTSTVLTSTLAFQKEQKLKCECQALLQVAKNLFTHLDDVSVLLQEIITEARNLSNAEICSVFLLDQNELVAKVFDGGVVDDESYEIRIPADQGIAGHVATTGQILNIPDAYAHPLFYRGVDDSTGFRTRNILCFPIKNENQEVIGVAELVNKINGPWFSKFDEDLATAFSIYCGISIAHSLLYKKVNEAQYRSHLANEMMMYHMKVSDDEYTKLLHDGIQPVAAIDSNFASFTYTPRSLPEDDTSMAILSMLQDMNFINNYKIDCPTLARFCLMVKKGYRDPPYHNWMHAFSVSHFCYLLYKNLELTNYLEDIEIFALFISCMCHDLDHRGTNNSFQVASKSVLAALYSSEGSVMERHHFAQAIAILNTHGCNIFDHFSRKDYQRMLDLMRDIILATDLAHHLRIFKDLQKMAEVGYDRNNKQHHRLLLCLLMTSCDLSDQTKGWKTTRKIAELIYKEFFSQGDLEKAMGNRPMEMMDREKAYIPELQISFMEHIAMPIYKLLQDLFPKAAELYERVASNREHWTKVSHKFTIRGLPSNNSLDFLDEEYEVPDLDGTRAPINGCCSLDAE
# Protocol: as §4
# [23] = biological target: PDE4B (Homo sapiens, UniProt Q07343); assay: as above; format: biochemical; settings: substrate cAMP; read-out: IC50 of PQ10 cAMP
# Protocol: as §4
# [24] = test system: MAPK signaling in H1299 cells; assay: Western blotting, RAF/MAPK signaling; format: cell-based, human
# Protocol: as §3
# [25] = test system: human lung tumor cells; assay: Growth assay (Cell Titer Glo), lung tumor cell panel; format: cell-based
# Protocol: as §1, §2
# [26] = test system: H1299 cells; assay: Growth assay (Cell Titer Glo); format: cell-based, human; settings: Homo sapiens, NCI-H1299; H1299, 72 hours, 5% serum; read-out: Growth inhibition IC50
# Protocol: as §1, §2
# [27] = test system: HOP62 PDE10 knockdown cells (shPDE10); assay: Growth assay (Cell Titer Glo); format: cell-based, human; settings: shPDE10, PQ10 2 µmol/L
# Protocol: (§5) The transient knockdown of PDE10 in NSCLC cells by PDE10-specific siRNA and scramble siRNA control was performed using RNAiMAX reagent (Invitrogen) as previously described. Effects of siRNA on NSCLC cell growth and PDE10 expression levels were measured after 72 hours of treatment. For a stable knockdown of PDE10, GIPZ lentiviral short hairpin RNA (shRNA) vectors targeting human PDE10, nonsilencing GPIZ lentiviral control vector, and transduction kit were purchased from Open Biosystems. Lentiviral particles of shRNA were produced in HEK293T cells (ATCC) according to the manufacturer’s instructions. HOP62 NSCLC cells were transfected by the lentivirus particles followed by puromycin (5 μg/mL) selection. Stable expression cell lines with shRNA of PDE10 (shPDE10) or lentiviral vector control (shCTL) were obtained by limited dilution for single cell clone and confirmed by Western blotting.
# as §1, with “All growth assay involving NSCLCs and NHAECs were performed in the presence of 5% serum.” left out
# [28] = test system: H1975 cells; assay: Growth assay (Cell Titer Glo); format: cell-based; settings: Homo sapiens, NCI-H1975; H1975, 72 hours, 5% serum; read-out: Growth inhibition IC50
# Protocol: as §1, §2
# [29] = test system: normal human airway epithelial cells (NHAECs); assay: Growth assay (Cell Titer Glo); format: cell-based
# Protocol: as §1, §2
# [30] = test system: intracellular cGMP levels in HEK293 cells; assay: cGMP biosensor assay (luciferase); format: cell-based, human
# Protocol: (§6) Stable cell lines with an expression of luciferase-based cGMP biosensor were established from H1299 NSCLC cells and HEK293 cells using a genetically encoded GAF-Luc construct (Promega), containing a cGMP-specific binding domain from human PDE5A GAF-A domain fused to modified firefly luciferase (35). Cells were pre-incubated at room temperature in CO2 independent media supplemented with 10% FBS and 5 mmol/L luciferin. For the measurement of intracellular cGMP levels, sodium nitroprusside (SNP) or C-type natriuretic peptide (CNP) in combination with PDE inhibitors were added to initiate the experiment and the increased luminescence values in live cells were detected constantly over a period time of 2 hours.
# [31] = test system: intracellular cGMP levels in H1299 cells; assay: cGMP biosensor assay (luciferase); format: cell-based, human; settings: for EC50: Homo sapiens, NCI-H1299, H1299 biosensor cells, read-out: EC50 to induce cGMP elevation
# Protocol: as §6
# [32] = test system: HOP62 cells (shCTL vector control); assay: Colony formation assay; format: cell-based, human
# Protocol: as §5
# (§7) For colony formation assays, 200 viable cells were plated in 6-well tissue culture plates and were cultured in RPMI medium supplemented with 5% serum. DMSO (0.2%) as the vehicle and different concentrations of PQ10 were added to the cell culture medium for 14 days of treatment. Colonies were counted after staining with crystal violet as previously described.
# [33] = test system: HOP62 PDE10 knockdown cells (shPDE10); assay: Colony formation assay; format: cell-based, human
# Protocol: as §5, §7
# [34] = substrate cAMP, read-out: IC50 of PQ10 cAMP
# [35] = substrate cGMP, read-out: IC50 of PQ10 cGMP
smiles,measurement,setting,value
Cn1cc(-c2ccncc2)c(-c2ccc(OCc3ccc4ccccc4n3)cc2)n1 [Pf-2545920],IC50,[1],22.9 µM
same,IC50,[2],18.6 µM
same,IC50,[3],25.8 µM
same,IC50,[4],20 µM
same,IC50,[5],21.4 µM
same,IC50,[6],21.1 µM
same,IC50,[7],15.2 µM
same,IC50,[8],15.8 µM
same,IC50,[9],18.1 µM
COC(=O)[C@@]1(OC)C[C@H]2O[C@]1(C)n1c3ccccc3c3c4c(c5c6ccccc6n2c5c31)C(=O)N(C)C4 [KT5823],effect on PQ10-induced activation of PARP and caspase 3,"[10]; H1299, 24 hours of treatment",attenuated
same,effect on PQ10-induced phosphorylation of β-catenin at pSer552,"[11]; H1299, PQ10 2 µmol/L, 1 hour, KT5823 0.1 µmol/L, H89 1 µmol/L",partial inhibition
COc1cc2ncnc(N3CC[C@@H](Oc4cnc5ccccc5n4)C3)c2cc1OC [PQ10],IC50 of PQ10 cAMP,[12],Inactive
same,IC50 of PQ10 cAMP,[13],Inactive
same,IC50 of PQ10 cGMP,[14],Inactive
same,IC50 of PQ10 cGMP,[15],Inactive
same,time to increase in pSer239-VASP levels,[16],≤ 30 minutes
same,IC50,[17],1.8 µM
same,IC50,[18]; [34],0.47 µM
same,IC50,[18]; [35],0.32 µM
same,IC50,[19]; [34],0.013 µM
same,IC50,[19]; [35],0.005 µM
same,IC50,[20]; [34],29.2 µM
same,IC50,[20]; [35],8.8 µM
same,IC50,[21]; [34],30.1 µM
same,IC50,[21]; [35],13.2 µM
same,IC50,[22]; [34],7 µM
same,IC50,[22]; [35],3.7 µM
same,IC50,[23],17.8 µM
same,"MAPK signaling, ERK1/2 (p42/44) phosphorylation at T202/Y204",[24],concentration- and time-dependent inhibition
same,phosphorylation of c-RAF at serine 338 and serine 259,[24],did not affect
same,lowest concentration increasing cleaved PARP and caspase 3,"[10]; H1299 cells, 24 hours of treatment",0.1 µmol/L
same,concentration of maximum effect on cleaved PARP and caspase 3,"[10]; H1299 cells, 48 hours of treatment",5 µmol/L
same,maximum reduction of viable cell number,[25]; 3 days of treatment,greater than 75%
same,IC50,"[25]; Homo sapiens, 72 h, read-out: Growth inhibition IC50 values, range over human lung tumor cells",0.32 to 1.69 µM
same,phosphorylation level of β-catenin at pSer675,[11]; H1299 cells,no change
same,phosphorylation of β-catenin at pSer552,"[11]; H1299 cells, concentration-dependent, 0.5-1 hour",increased the phosphorylation
same,IC50,[1],1.01 µM
same,growth of vector control HOP62 cells,"[1]; shCTL, PQ10 2 µmol/L",effectively inhibited
same,IC50,[26],1.69 µM
same,sensitivity of PDE10 knockdown HOP62 cells in growth assay,[27],appreciably less sensitive
same,IC50,[28],1.27 µM
same,IC50,[7],0.32 µM
same,IC50,[8],0.54 µM
same,IC50,"[29]; Homo sapiens, Epithelial cell, NHAEC, 72 hours, 5% serum, read-out: Growth inhibition IC50",17.3 µM
same,fold less sensitive to PQ10 treatment (NHAECs vs lung tumor cells),[29]; growth assays under identical conditions,≤ 50 fold
same,EC50,"[30]; Homo sapiens, HEK293 biosensor cells, SNP (100 µmol/L) stimulation, read-out: EC50 to induce cGMP elevation",5.67 µM
same,EC50 fold higher in HEK293 than in H1299 biosensor cells,[30]; SNP (100 µmol/L),about 3.3 fold
same,time to increase in cGMP levels,"[31]; H1299 biosensor cells, sustained to 2 hours",≤ 1 h
same,EC50,[31]; CNP (100 nmol/L) stimulation,1.31 µM
same,EC50,[31]; SNP (100 µmol/L) stimulation,1.72 µM
same,reduction of colony formation,"[32]; 0.1 µmol/L, HOP62 vector control cells",54.4%
same,IC50,"[32]; Homo sapiens, HOP-62, 336 h, HOP62 shCTL, 14 days of treatment",0.098 µM
same,reduction of colony formation,"[33]; 0.1 µmol/L, PDE10 knockdown HOP62 cells",12.3%
same,IC50,"[33]; Homo sapiens, HOP-62, 336 h, HOP62 shPDE10, 14 days of treatment",0.172 µM
